This is an account of results in patent US10167262B2, “Herbicidal substituted 3-arylpyrazoles” (FMC CORPORATION, priority 2014, dated 2019).

Assay type in all cases: in vivo
Assay [1] relates to velvetleaf (Abutilon theophrasti). Kind of assay: Test A pre-/postemergence greenhouse herbicide test, visual injury rating 0-100. Conditions: 1000 g ai/ha. In a few lines:
(§1)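 Seeds sown in loam soil–sand blend; preemergence directed soil spray and, simultaneously, postemergence spray on plants 2 to 10 cm tall at one- to two-leaf stage. Compounds formulated in non-phytotoxic solvent mixture with surfactant. Injury rated visually versus untreated controls after ~10 days in greenhouse.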

In assay [2] the test system is morningglory (Ipomoea spp.). Described as above. Conditions: 1000 g ai/ha. In a few lines: as §1
The test system of assay [3] is barnyardgrass (Echinochloa crus-galli). The assay is described as above. The settings on record: 1000 g ai/ha. The gist of the method:
as §1

Assay [4] concerns corn (Zea mays). The description is as above. Conditions: 1000 g ai/ha. The gist of the method: as §1
In assay [5] the test system is wheat (Triticum aestivum). Described as above. The settings on record: 1000 g ai/ha. The gist of the method: as §1
For assay [6], the system named is large (Lg) crabgrass (Digitaria sanguinalis). The description is as above. Conditions: 1000 g ai/ha. The gist of the method: as §1
Assay [7] concerns pigweed (Amaranthus retroflexus). The assay is described as above. Conditions: 1000 g ai/ha. In a few lines: as §1
The subject of assay [8] is giant foxtail (Setaria faberii). Described as above. Conditions: 1000 g ai/ha. In a few lines: as §1
In assay [9] the test system is lambsquarters (Chenopodium album). As to the kind of experiment: Test C pre-/postemergence greenhouse test, plant response rating 0-100. The settings on record: Postemergence; for Plant response rating, Lambsquarters: scale 0 to 100. The gist of the method: (§2)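 Plants were treated either at seeding (soil of loam and sand) or as 2–18 cm seedlings in a sphagnum peat mix, using test chemicals in a surfactant-containing non-phytotoxic solvent. Visual assessment relative to controls followed 13–15 days later.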

For assay [10], the system named is velvetleaf (Abutilon theophrasti). The description is as above. The settings on record: Postemergence; for Plant response rating, Velvetleaf: scale 0 to 100. The gist of the method: as §2
Assay [11] deals with johnsongrass (Sorghum halepense). The assay is described as above. The settings on record: Postemergence; for Plant response rating, Johnsongrass: scale 0 to 100. The gist of the method:
as §2

In assay [12] the test system is morningglory (Ipomoea coccinea). The assay is described as above. Conditions: Postemergence; for Plant response rating, Morningglory: scale 0 to 100. In a few lines:
as §2

Take `Clc1cc(Cl)cc(-c2n[nH]cc2C(=NNc2ccccc2Cl)c2ccccc2)c1` [Compound 66]: the “Plant response rating (0 to 100 scale), Velvetleaf” value in assay [1] (Postemergence) worked out at 90; in assay [1] (Preemergence), 80. Moreover, the “Plant response rating (0 to 100 scale), Morningglory” value in [2] (Postemergence) and in [2] (Preemergence) was 0 throughout. The “Plant response rating (0 to 100 scale), Barnyardgrass” value (shortened to “Plant response rating … Barnyardgrass”) in assay [3] (Postemergence) and in [3] (Preemergence) was 0 each time. In addition, the “Plant response rating (0 to 100 scale), Corn” value (shortened to “Plant response rating … Corn”) in [4] (Postemergence) and in [4] (Preemergence) was 0 each time. The “Plant response rating (0 to 100 scale), Wheat” value (from here on “Plant response rating … Wheat”) in assay [5] (Postemergence) and in assay [5] (Preemergence) was 0 each time. For the same compound, the “Plant response rating (0 to 100 scale), Crabgrass, Large” value (from here on “Plant response rating … Large”) in [6] (Postemergence) and in [6] (Preemergence) was 0 each time. Further, the “Plant response rating (0 to 100 scale), Pigweed” value (“Plant response rating … Pigweed” below) in assay [7] (Postemergence) and in assay [7] (Preemergence) was 80 throughout. Moreover, the “Plant response rating (0 to 100 scale), Foxtail, Giant” value (shortened to “Plant response rating … Giant”) in assay [8] (Postemergence) and in assay [8] (Preemergence) was 0 throughout. Besides, the “Plant response rating (0 to 100), Lambsquarters” value in [9] (62 g ai/ha) was determined as 40; in assay [9] (125 g ai/ha), 50. Also, the “Plant response rating, Lambsquarters” value in assay [9] (250 g ai/ha) and in assay [9] (500 g ai/ha) was 90 throughout. The “Plant response rating (0 to 100), Velvetleaf” value in assay [10] (62 g ai/ha) and in assay [10] (125 g ai/ha) was 55 in each case. In addition, the “Plant response rating, Velvetleaf” value in assay [10] (250 g ai/ha) is on record as 80; in assay [10] (500 g ai/ha), 90. Also, the “Plant response rating (0 to 100), Johnsongrass” value in assay [11] (62 g ai/ha) and in assay [11] (125 g ai/ha) was 0 each time. Also, the “Plant response rating, Johnsongrass” value in [11] (250 g ai/ha) and in assay [11] (500 g ai/ha) was 0 each time.

For the compound `Cn1cc(C(=O)c2ccccc2)c(-c2cc(Br)cc(Br)c2)n1` [Compound 53], the “Plant response rating (0 to 100 scale), Velvetleaf” value worked out at 90 in assay [1] (Postemergence) and 60 in [1] (Preemergence). The “Plant response rating (0 to 100 scale), Morningglory” value in [2] (Postemergence) and in assay [2] (Preemergence) was 0 each time. Besides, the “Plant response rating … Barnyardgrass” value in [3] (Postemergence) and in assay [3] (Preemergence) was 0 throughout. For the same compound, the “Plant response rating … Corn” value in [4] (Postemergence) and in assay [4] (Preemergence) was 0 each time. For the same compound, the “Plant response rating … Wheat” value in assay [5] (Postemergence) and in [5] (Preemergence) was 0 in each case. The “Plant response rating … Large” value in assay [6] (Postemergence) and in [6] (Preemergence) was 0 throughout. In addition, the results for the “Plant response rating … Pigweed” value in [7] (Postemergence) and in assay [7] (Preemergence) were 100 and 90, respectively. For the same compound, the “Plant response rating … Giant” value in [8] (Postemergence) and in assay [8] (Preemergence) was 0 in each case. Also, the “Plant response rating (0 to 100), Lambsquarters” value in assay [9] (125 g ai/ha) was 30. Further, the results for the “Plant response rating, Lambsquarters” value in [9] (250 g ai/ha) and in assay [9] (500 g ai/ha) were 35 and 100, respectively. For the same compound, the figures for the “Plant response rating (0 to 100), Velvetleaf” value in assay [10] (62 g ai/ha) and in [10] (125 g ai/ha) were 60 and 75, respectively. Also, in assay [10] (250 g ai/ha), the “Plant response rating, Velvetleaf” value was found to be 90. Moreover, the “Plant response rating (0 to 100), Johnsongrass” value in assay [11] (62 g ai/ha) and in assay [11] (125 g ai/ha) was 0 in each case. The “Plant response rating, Johnsongrass” value in [11] (250 g ai/ha) and in [11] (500 g ai/ha) was 0 throughout.

Take `Fc1ccccc1NN=C(c1ccccc1)c1c[nH]nc1-c1cc(Cl)cc(Cl)c1` [Compound 57]: the “Plant response rating (0 to 100 scale), Velvetleaf” value in assay [1] (Postemergence) stood at 100; in assay [1] (Preemergence), 80. Further, the “Plant response rating (0 to 100 scale), Morningglory” value in assay [2] (Postemergence) and in [2] (Preemergence) was 0 each time. Moreover, the “Plant response rating … Barnyardgrass” value in [3] (Postemergence) and in [3] (Preemergence) was 0 throughout. The “Plant response rating … Corn” value in assay [4] (Postemergence) and in assay [4] (Preemergence) was 0 each time. In addition, the “Plant response rating … Wheat” value in assay [5] (Postemergence) and in assay [5] (Preemergence) was 0 each time. Besides, the “Plant response rating … Large” value in [6] (Postemergence) and in assay [6] (Preemergence) was 0 each time. Moreover, the “Plant response rating … Pigweed” value in assay [7] (Postemergence) and in assay [7] (Preemergence) was 90 each time. Further, the “Plant response rating … Giant” value in [8] (Postemergence) and in [8] (Preemergence) was 0 in each case. The “Plant response rating (0 to 100), Lambsquarters” value in assay [9] (62 g ai/ha) is listed as 60; in assay [9] (125 g ai/ha) it was 100. Besides, the “Plant response rating (0 to 100), Velvetleaf” value in [10] (62 g ai/ha) was determined as 70; in assay [10] (125 g ai/ha), 80. Moreover, in assay [10] (250 g ai/ha), the “Plant response rating, Velvetleaf” value stood at 80. In addition, the “Plant response rating (0 to 100), Johnsongrass” value in [11] (62 g ai/ha) and in [11] (125 g ai/ha) was 0 throughout. The “Plant response rating, Johnsongrass” value in assay [11] (250 g ai/ha) was 0.

Take `CCn1cc(C(=O)c2cccs2)c(-c2cc(Cl)cc(Cl)c2)n1` [Compound 18]: the results for the “Plant response rating (0 to 100), Lambsquarters” value in [9] (62 g ai/ha) and in [9] (125 g ai/ha) were 60 and 85, respectively. The “Plant response rating, Lambsquarters” value in [9] (250 g ai/ha) came out at 85; in [9] (500 g ai/ha), 90. Moreover, the “Plant response rating (0 to 100), Velvetleaf” value in assay [10] (62 g ai/ha) turned out to be 50; in assay [10] (125 g ai/ha) it was 65. The “Plant response rating, Velvetleaf” value turned out to be 70 in [10] (250 g ai/ha) and 80 in assay [10] (500 g ai/ha). The “Plant response rating (0 to 100), Morningglory” value in [12] (62 g ai/ha) was 5; in assay [12] (125 g ai/ha) it was 10. The “Plant response rating, Morningglory” value in assay [12] (250 g ai/ha) is listed as 20; in assay [12] (500 g ai/ha) it was 45. In addition, in [11] (62 g ai/ha), the “Plant response rating (0 to 100), Johnsongrass” value stood at 0. In addition, the results for the “Plant response rating, Johnsongrass” value in assay [11] (250 g ai/ha) and in assay [11] (500 g ai/ha) were 0 and 5, respectively.

On to `Cn1cc(C(=O)c2cccs2)c(-c2cc(Cl)cc(Cl)c2)n1` [Compound 17], for which the “Plant response rating (0 to 100), Lambsquarters” value in [9] (62 g ai/ha) is recorded as 15; in assay [9] (125 g ai/ha), 55. The entries for the “Plant response rating, Lambsquarters” value in assay [9] (250 g ai/ha) and in [9] (500 g ai/ha) were 80 and 98, respectively. The “Plant response rating (0 to 100), Velvetleaf” value in assay [10] (62 g ai/ha) and in [10] (125 g ai/ha) was 80 each time. Besides, the “Plant response rating, Velvetleaf” value in [10] (250 g ai/ha) and in [10] (500 g ai/ha) was 80 throughout. Further, the “Plant response rating (0 to 100), Morningglory” value in assay [12] (62 g ai/ha) and in assay [12] (125 g ai/ha) was 5 in each case. Besides, the “Plant response rating, Morningglory” value is 10 in assay [12] (250 g ai/ha) and 15 in assay [12] (500 g ai/ha). Also, the “Plant response rating (0 to 100), Johnsongrass” value in assay [11] (62 g ai/ha) and in [11] (125 g ai/ha) was 0 in each case. Besides, the “Plant response rating, Johnsongrass” value in assay [11] (250 g ai/ha) is on record as 10; in assay [11] (500 g ai/ha), 15.
